Among the test systems are SN12C renal; HCC-2998 colon; HCT-15 colon; SF-268 CNS; HOP-92 NSCLC; HL-60(TB) leukemia; MALME-3M melanoma; NCI-H460 lung; SK-MEL-5 melanoma.
What all share (assay): NCI-60 cell line screen, 48 h

Several values for one entry are separate records, joined by “and”; a condition that tells them apart may be missing. Equal values may be shown once.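 Assay format: 96-well plates, 48-hour exposure. GI50 marks 50% less growth. TGI is the concentration that stops growth completely.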 A value given as a limit tells only on which side of the number the result lay.

Take `CCCCCCCCCCCCCB(O)O`: the TGI in the assay on SN12C renal is > 100 µM; with HCC-2998 colon, > 100 µM and 84.7 µM; in the assay on HCT-15 colon, > 100 µM; with SF-268 CNS it was > 100 µM; in the assay with HOP-92 NSCLC, > 100 µM and 82.9 µM; with HL-60(TB) leukemia, > 100 µM and 42.5 µM. Besides, the TGI in the assay with MALME-3M melanoma, with NCI-H460 lung and in the assay with SK-MEL-5 melanoma was > 100 µM throughout. The GI50 in the assay on HCC-2998 colon was > 100 µM and 32 µM; in the assay with HCT-15 colon, > 100 µM and 49.3 µM; in the assay with HOP-92 NSCLC, > 100 µM and 25.1 µM; in the assay with SK-MEL-5 melanoma, > 100 µM and 45.4 µM.
For the compound `c1ccc2c(NCCCCCCNc3cccc4ccccc34)cccc2c1`, the TGI in the assay on SN12C renal, in the assay on HCC-2998 colon, with HCT-15 colon, in the assay on SF-268 CNS, in the assay with HOP-92 NSCLC and in the assay with HL-60(TB) leukemia was > 100 µM each time. Besides, the TGI in the assay with MALME-3M melanoma, in the assay on NCI-H460 lung and with SK-MEL-5 melanoma was > 100 µM in each case.
For the compound `CN(C)c1ccc2nc(CC(O)(C(F)(F)F)C(F)(F)F)ccc2c1`, the TGI in the assay with SN12C renal, with HCC-2998 colon, in the assay with HCT-15 colon, with SF-268 CNS, in the assay on HOP-92 NSCLC and in the assay on MALME-3M melanoma was > 10 µM in each case. Further, the TGI in the assay on NCI-H460 lung and in the assay on SK-MEL-5 melanoma was > 10 µM each time.
As for `C/C(=N\NC(=O)CC(=O)N(C(=O)c1ccc(Cl)cc1)c1ccc(C)cc1)c1ccccc1O`, the TGI in the assay with SN12C renal, in the assay on HCT-15 colon, with SF-268 CNS, in the assay with MALME-3M melanoma, in the assay on NCI-H460 lung and in the assay on SK-MEL-5 melanoma was > 100 µM each time.
Consider `CC(C)C1N2CCCCC2[C@@H]2c3[nH]c4ccccc4c3CCN12` (some centres undefined), for which the TGI with SN12C renal, in the assay with HCC-2998 colon, in the assay with HCT-15 colon, in the assay on SF-268 CNS, in the assay with HOP-92 NSCLC and in the assay with HL-60(TB) leukemia was > 100 µM throughout. For the same compound, the TGI in the assay with NCI-H460 lung and in the assay with SK-MEL-5 melanoma was > 100 µM in each case.
Turning to `CC(=O)O[C@H]1CC2C=CC3C(CCC31)O2` (some centres undefined), the TGI in the assay on SN12C renal, in the assay with HCC-2998 colon, with HCT-15 colon, with SF-268 CNS, in the assay with HL-60(TB) leukemia and in the assay with MALME-3M melanoma was > 100 µM throughout. For the same compound, the TGI in the assay on NCI-H460 lung was > 100 µM.
On to `CCOP1(=O)C=C(C)C(=C(Cl)Cl)C(C)=C1` (centres undefined), for which the TGI is > 100 µM with SN12C renal; 31.4 µM with HCC-2998 colon; 36.9 µM in the assay on HCT-15 colon; > 100 µM with SF-268 CNS; 10.9 µM in the assay with HL-60(TB) leukemia; 47.3 µM in the assay on MALME-3M melanoma. The TGI in the assay on NCI-H460 lung was > 100 µM. In addition, in the assay with SF-268 CNS, the GI50 was 15.8 µM.
As for `C1C[OH+]CC[OH+]CCNCC[OH+]CC[OH+]CCN1.Cl.[Cl-].[Pt+4]`, the GI50 in the assay with SN12C renal, in the assay on HCT-15 colon, in the assay on SF-268 CNS, in the assay with HOP-92 NSCLC, in the assay with HL-60(TB) leukemia and in the assay on NCI-H460 lung was > 100 µM each time. For the same compound, the GI50 in the assay with SK-MEL-5 melanoma was > 100 µM. Besides, the TGI in the assay on SN12C renal, in the assay with HCT-15 colon, in the assay on SF-268 CNS, in the assay on HOP-92 NSCLC, in the assay on HL-60(TB) leukemia and in the assay with NCI-H460 lung was > 100 µM throughout. Also, the TGI with SK-MEL-5 melanoma is > 100 µM.
On to `COc1ccc(-c2cc(=O)c3c(O)cc(O)cc3o2)c(OC)c1OC`, for which the TGI in the assay with SN12C renal, in the assay with HCC-2998 colon, with SF-268 CNS, in the assay with HOP-92 NSCLC, with HL-60(TB) leukemia and in the assay with MALME-3M melanoma was > 100 µM in each case.
`COc1cc(/C=C2\C[C@H]3[C@@H]4CC=C5C[C@@H](OC(C)=O)CC[C@]5(C)[C@H]4CC[C@]3(C)[C@H]2OC(C)=O)ccc1OCCN1CCCC1`: the GI50 was 7.79 µM in the assay on SN12C renal; 8.01 µM in the assay with HCC-2998 colon; 8.94 µM in the assay with SF-268 CNS; 5.45 µM in the assay with HOP-92 NSCLC; 10.3 µM in the assay on HL-60(TB) leukemia; 10.2 µM in the assay with NCI-H460 lung. For the same compound, in the assay with SK-MEL-5 melanoma, the GI50 is 6.97 µM. In addition, the TGI amounted to 15.7 µM with SN12C renal; 15.4 µM with HCC-2998 colon; 18.8 µM with SF-268 CNS; 13.4 µM with HOP-92 NSCLC; 20.6 µM in the assay on HL-60(TB) leukemia; 23.1 µM with NCI-H460 lung. The TGI in the assay with SK-MEL-5 melanoma came to 15.1 µM.
With `C=CCN(N=O)C(=O)NCCCCC(NC(C)=O)C(=O)NCc1ccccc1` (centres undefined), the TGI with SN12C renal, in the assay on HCT-15 colon, in the assay on SF-268 CNS, in the assay on HOP-92 NSCLC, with HL-60(TB) leukemia and with MALME-3M melanoma was > 100 µM each time. The TGI in the assay with NCI-H460 lung and in the assay with SK-MEL-5 melanoma was > 100 µM in each case.
On to `CCOC1CC2OC(=O)C1C=C2C(=O)OC` (centres undefined), for which the TGI in the assay with HCC-2998 colon was > 100 µM; with HCT-15 colon it was > 100 µM; in the assay on SF-268 CNS it was > 100 µM; in the assay with HOP-92 NSCLC it was 73.1 µM; in the assay with HL-60(TB) leukemia, 46.8 µM; in the assay on MALME-3M melanoma it was 38.5 µM. The TGI with NCI-H460 lung and with SK-MEL-5 melanoma was > 100 µM each time.
